We go through five molecules from patent US11767282B2, “Composition biologically active to stenoma catenifer and sustained release preparation comprising the same for controlling insect pest” (Shin-Etsu Chemical Co., Ltd., priority 2021, dated 2023).

“Also recorded” adds a separate entry of the source.

In assay [1] the test system is Stenoma catenifer. The conditions noted are these: Stenoma catenifer males; Millar et al. 2008, Hoddle et al. 2009; cited from earlier work.
Assay [2] has as its system Stenoma catenifer. Description: field trap evaluation of sustained release preparations (white adhesive trap). The conditions noted are these: field traps, versus (9Z)-9,13-tetradecadien-11-ynal (1) alone. The assay is classed as in vivo. From the text: A white adhesive trap was used for evaluation of the sustained release preparation. […] An adhesive substance is placed to the upper surface of the bottom plate, and the sustained release preparation A is directly mounted on the adhesive surface for use. In other words, the white adhesive trap has the structure in which only insect pests that come close to the sustained release preparation are captured, and the capture of untargeted insect pests are avoided as much as possible.
In the period of from September 23 and Nov. 25, 2019, the traps containing the respective sustained release preparations were installed in the orchards in which Stenoma catenifer lived. Adult male insect pests captured and killed in each trap were counted every 7 days. The control effect was evaluated by determining the relative value of the number of the insect pests captured by the sustained release preparation of Example 1 when regarding the total number of insect pests captured by the sustained release preparation of later-described Example 2 as 100.

Assay [3] has as its system tomato fruit borer (Neoleucinodes elegantalis). To be noted: added to sex pheromone main component (11E)-11-hexadecenol; Cabrera, J. Chem. Ecol. 2001; cited from earlier work.

Take `C=CC#C/C=C\CCCCCCCC=O` [(9Z)-9,13-tetradecadien-11-ynal]: the “effect on attraction number in field attraction tests” value (“effect on attraction number” below) in the assay with Stenoma catenifer [1] is listed as “highest activity among the many attractant compositions; also recorded: attracted Stenoma catenifer”.

Turning to `CCCCC/C=C\C/C=C\CCCCCCCCCCCCC` [(6Z,9Z)-6,9-tricosadiene], in the assay with Stenoma catenifer [1], the “effect on attraction number” value is on record as “did not affect the attraction number”.

On to `C=CC#C/C=C/CCCCCCCC=O` [(9E)-9,13-tetradecadien-11-ynal], for which the “number of male adult insect pests captured compared with the comparative attractant” value in the assay with Stenoma catenifer [2] was “increase in the total number of the captured insect pests”.

Take `C=CC#C/C=C\CCCCCCCCO` [(9Z)-9,13-tetradecadien-11-yn-1-ol]: in the assay on Stenoma catenifer [1], the “effect on attraction number” value is recorded as “reduced the attraction number; also recorded: attraction inhibitor”.

Consider `CCCC/C=C\CCCCCCCCCCO` [(11Z)-11-hexadecenol], for which the “effect of addition on attracted number” value in assay [3] is on record as “greatly reduce the attracted number”.
